{
  "source": "patent US11117861B2",
  "about": "“Phenylpyrrolidinone formyl peptide 2 receptor agonists” (BRISTOL-MYERS SQUIBB COMPANY, priority 2018, dated 2021)",
  "key": {"human FPR1": {"biological_target": "human FPR1 (Homo sapiens (Human), UniProt P21462)", "sequence (P21462 whole entry)": "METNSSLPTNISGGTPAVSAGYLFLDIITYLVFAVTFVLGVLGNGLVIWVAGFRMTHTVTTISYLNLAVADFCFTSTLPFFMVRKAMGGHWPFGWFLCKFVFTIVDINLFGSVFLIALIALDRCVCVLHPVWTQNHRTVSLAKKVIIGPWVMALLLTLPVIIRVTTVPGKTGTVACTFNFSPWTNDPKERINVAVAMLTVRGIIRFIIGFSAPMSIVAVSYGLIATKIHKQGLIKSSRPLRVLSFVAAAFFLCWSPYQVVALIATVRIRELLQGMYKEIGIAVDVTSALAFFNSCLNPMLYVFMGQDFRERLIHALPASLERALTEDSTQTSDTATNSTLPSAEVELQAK", "experiment": "FPR1 cyclic adenosine monophosphate (cAMP) assay in CHO cells overexpressing human FPR1", "format": "cell-based", "conditions": "forskolin 10 μM, inhibition of cAMP production, read-out: hFPR1 cAMP EC50", "experimental": "FPR2 and FPR1 Cyclic Adenosine Monophosphate (cAMP) Assays were used to measure the activity of the compounds in this patent.\nA mixture of forskolin (5 μM final for FPR2 or 10 μM final for FPR1) and IBMX (200 μM final) were added to 384-well Proxiplates (Perkin-Elmer) pre-dotted with test compounds in DMSO (1% final) at final concentrations in the range of 0.020 nM to 100 μM. Chinese Hamster Ovary cells (CHO) overexpressing human FPR1 or human FPR2 receptors were cultured in F-12 (Ham's) medium supplemented with 10% qualified FBS, 250 μg/ml zeocin and 300 μg/ml hygromycin (Life Technologies). Reactions were initiated by adding 2,000 human FPR2 cells per well or 4,000 human FPR1 cells per well in Dulbecco's PBS (with calcium and magnesium) (Life Technologies) supplemented with 0.1% BSA (Perkin-Elmer). The reaction mixtures were incubated for 30 min at room temperature. The level of intracellular cAMP was determined using the HTRF HiRange cAMP assay reagent kit (Cisbio) according to manufacturer's instruction. Solutions of cryptate conjugated anti-cAMP and d2 flurorophore-labelled cAMP were made in a supplied lysis buffer separately. […] The potency and activity of a compound to inhibit cAMP production was then determined by fitting to a 4-parametric logistic equation from a plot of cAMP level versus compound concentrations."}, "human FPR2": {"biological_target": "human FPR2 (Homo sapiens (Human), UniProt P25090)", "sequence (P25090 whole entry)": "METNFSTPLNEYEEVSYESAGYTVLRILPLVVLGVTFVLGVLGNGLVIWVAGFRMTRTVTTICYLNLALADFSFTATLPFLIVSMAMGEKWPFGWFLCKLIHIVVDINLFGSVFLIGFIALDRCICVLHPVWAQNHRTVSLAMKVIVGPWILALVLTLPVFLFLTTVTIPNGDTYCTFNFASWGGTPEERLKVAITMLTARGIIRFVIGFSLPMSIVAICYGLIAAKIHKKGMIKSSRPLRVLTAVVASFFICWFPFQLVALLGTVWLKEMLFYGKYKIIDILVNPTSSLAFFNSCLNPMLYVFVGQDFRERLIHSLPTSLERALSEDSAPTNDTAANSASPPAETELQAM", "experiment": "FPR2 cyclic adenosine monophosphate (cAMP) assay in CHO cells overexpressing human FPR2", "format": "cell-based", "conditions": "forskolin 5 μM, inhibition of cAMP production, read-out: hFPR2 cAMP2 EC50", "source_text": "N-formyl peptide receptors (FPRs) are a family of chemo attractant receptors that facilitate leukocyte response during inflammation. FPRs belong to the seven-transmembrane G protein-coupled receptor superfamily and are linked to inhibitory G-proteins (Gi). Three family members (FPR1, FPR2 and FPR3) have been identified in humans and are predominantly found in myeloid cells with varied distribution and have also been reported in multiple organs and tissues. After agonist binding, the FPRs activate a multitude of physiological pathways, such as intra cellular signaling transduction, Ca^2+ mobilization and transcription. The family interacts with a diverse set of ligands that includes proteins, polypeptides and fatty acid metabolites which activate both pro-inflammatory and pro-resolution downstream responses. […]\nFPR2 and FPR1 Cyclic Adenosine Monophosphate (cAMP) Assays. […] The level of intracellular cAMP was determined using the HTRF HiRange cAMP assay reagent kit (Cisbio) according to manufacturer's instruction. […] After a 1-h room temperature incubation, time-resolved fluorescence intensity was measured using the Envision (Perkin-Elmer) at 400 nm excitation and dual emission at 590 nm and 665 nm. […] The potency and activity of a compound to inhibit cAMP production was then determined by fitting to a 4-parametric logistic equation from a plot of cAMP level versus compound concentrations. […]"}},
  "data": [
    {"compound": "COc1c(-c2ccccc2CO)ccc(N2CC[C@@H](NC(=O)Nc3ccc(Cl)cc3F)C2=O)c1F", "note": "[Example 35]", "values": [
      {"measurement": "EC50", "setting": "human FPR1", "result": 52, "unit": "nM"},
      {"measurement": "EC50", "setting": "human FPR2", "result": 8.6, "unit": "nM"}
    ]}
  ]
}
